Data published in paper PMC11002876, “KcsA-Kv1.x chimeras with complete ligand-binding sites provide improved predictivity for screening selective Kv1.x blockers” (The Journal of Biological Chemistry, 2024).
Entries after “also recorded” stand apart in the source; their conditions may differ. Where a SMILES comes first, the peptide text is derived from it.

Assays:
[1] = system: human Kv1.2 channel (hKv1.2); assay: Whole-cell patch-clamp, hKv1.2-expressing CHO cells; type: cell-based; details: see Table 1 and Fig. S2; 10 nM peptide in patch-clamp
Description: (§1) Chinese Hamster Ovarian cells were grown in Dulbecco’s modified Eagle’s medium–high glucose supplemented with 10% FBS, 2 mM L-glutamine, 100 U/ml penicillin-g, and 100 μg/ml streptomycin (Invitrogen) at 37 °C in a 5% CO2 and 95% air humidified atmosphere. Cells were passaged twice per week following a 5 min incubation in PBS containing 0.2 g/L EDTA. Chinese Hamster Ovarian cells were transiently transfected with plasmids encoding human Kv1.1 (hKCNA1 gene) and human Kv1.2 (hKCNA2 gene) in pCMV6-AC-GFP plasmid (RG211000 and RC222200, OriGene Technologies) using Lipofectamine 2000 (Invitrogen) following the manufacturer’s protocol, then cultured under standard conditions. Transfected cells were washed twice with 2 ml of extracellular solution (ECS, see below) and replated onto 35 mm polystyrene cell culture dishes (Cellstar, Greiner Bio-One) before the patch-clamp experiments. […] In general, currents were recorded 24 to 36 h after transfection.
(§2) Conventional whole-cell patch-clamp electrophysiology was used to record ionic currents. Micropipettes were pulled from GC150F-7.5 borosilicate capillaries (Harvard Apparatus) with tip diameters between 0.5 and 1 μm resulting in a tip resistance of 2 to 8 MΩ in the extracellular (bath) solution. […]
(§3) Native peptides, phage-expressed peptides, and positive controls used for them were dissolved in ECS supplemented with 0.1 mg/ml bovine serum albumin (BSA; Sigma-Aldrich Hungary). Bath perfusion around the measured cell with different extracellular solutions was achieved using a gravity flow micro perfusion system using a rate of 0.5 ml/min. […]
(§4) Voltage protocols: For measurement of Kv1.1 to 1.3 currents, voltage steps to +50 mV were applied from a holding potential of −120 mV and the peak current was measured every 15 s. […] The remaining current fraction at a given molar concentration was calculated as I/I0, where I0 is the peak current in the absence and I is the peak current at equilibrium block or […] after ∼2 min perfusion by the investigated peptide/phage.

[2] = system: human Kv1.1 channel (hKv1.1); assay: Whole-cell patch-clamp, hKv1.1-expressing CHO cells; type: cell-based; details: see Table 1 and Fig. S3; 1 nM peptide in patch-clamp
Description: as §1, §2, §3, §4

Structure (SMILES)	potency ranking, Kv1.2 [1]	potency ranking, Kv1.1 [2]
CC[C@H](C)[C@H](NC(=O)[C@H](CCC(=O)O)NC(=O)[C@@H](NC(=O)CN)C(C)C)C(=O)N[C@@H](CC(N)=O)C(=O)N[C@H](C(=O)N[C@@H](CCCCN)C(=O)N[C@H]1CSSC[C@@H]2NC(=O)[C@H](CCCCN)NC(=O)CNC(=O)[C@H](Cc3ccccc3)NC(=O)[C@H](CCCNC(=N)N)NC(=O)[C@H](CCSC)NC(=O)CNC(=O)[C@H](C)NC(=O)[C@H](CC(=O)O)NC(=O)[C@H](CCCCN)NC(=O)[C@@H]3CSSC[C@@H](C(=O)N[C@H](C(=O)N4CCC[C@H]4C(=O)N[C@@H](CCCCN)C(=O)O)[C@@H](C)O)NC(=O)[C@H](Cc4c[nH]cn4)NC(=O)[C@H](CSSC[C@H](NC(=O)[C@H](CCC(N)=O)NC(=O)[C@@H]4CCCN4C(=O)[C@H](CO)NC(=O)CNC(=O)[C@H](CO)NC1=O)C(=O)N[C@@H](CC(C)C)C(=O)N[C@@H](CCCCN)C(=O)N1CCC[C@H]1C(=O)N3)NC(=O)[C@H](CCCCN)NC(=O)[C@H](CCCNC(=N)N)NC(=O)[C@H](CC(N)=O)NC(=O)[C@H](CCSC)NC2=O)C(C)C [KTX1, Kaliotoxin-1]	MTX > ShK >> KTX1	ShK > KTX1 >> MTX; also recorded: ShK > KTX1 > MTX
CC[C@H](C)[C@@H]1NC(=O)[C@@H]2CSSC[C@H](NC(=O)[C@H](CO)NC(=O)[C@@H](N)C(C)C)C(=O)N[C@@H]([C@@H](C)O)C(=O)NCC(=O)N[C@@H](CO)C(=O)N[C@@H](CCCCN)C(=O)N[C@@H](CC(=O)O)C(=O)N[C@@H](CSSC[C@@H](C(=O)N[C@@H](CCCCN)C(=O)N[C@H]3CSSC[C@@H](C(N)=O)NC(=O)CNC(=O)[C@H](Cc4ccc(O)cc4)NC3=O)NC(=O)[C@H](CO)NC(=O)[C@H](CCCCN)NC(=O)[C@H](CC(N)=O)NC1=O)C(=O)N[C@@H](Cc1ccc(O)cc1)C(=O)N[C@@H](C)C(=O)N1CCC[C@H]1C(=O)N[C@H]1CSSC[C@H](NC(=O)CNC(=O)[C@H]([C@@H](C)O)NC(=O)[C@H](CCC(N)=O)NC(=O)[C@H](CCCCN)NC(=O)[C@H](CCCNC(=N)N)NC1=O)C(=O)N1CCC[C@H]1C(=O)N[C@@H](CC(N)=O)C(=O)N[C@@H](C)C(=O)N[C@@H](CCCCN)C(=O)N2 [MTX, Maurotoxin] (HELM PEPTIDE1{V.S.C.T.G.S.K.D.C.Y.A.P.C.R.K.Q.T.G.C.P.N.A.K.C.I.N.K.S.C.K.C.Y.G.C.[am]}$PEPTIDE1,PEPTIDE1,3:R3-24:R3|PEPTIDE1,PEPTIDE1,9:R3-29:R3|PEPTIDE1,PEPTIDE1,13:R3-19:R3|PEPTIDE1,PEPTIDE1,31:R3-34:R3$$$V2.0; N-terminus and C-terminus assumed)	MTX > ShK >> KTX1	ShK > KTX1 >> MTX; also recorded: ShK > KTX1 > MTX
CC[C@H](C)[C@@H]1NC(=O)[C@@H](NC(=O)[C@H](CO)NC(=O)[C@@H](N)CCCNC(=N)N)CSSC[C@@H](C(=O)O)NC(=O)[C@H]([C@@H](C)O)NC(=O)CNC(=O)[C@@H]2CSSC[C@@H]3NC(=O)[C@H](CCC(N)=O)NC(=O)[C@H](Cc4ccccc4)NC(=O)[C@H](C)NC(=O)[C@H]([C@@H](C)O)NC(=O)[C@H](CSSC[C@H](NC(=O)[C@H](Cc4ccccc4)NC(=O)[C@H](CO)NC(=O)[C@H](CC(C)C)NC(=O)[C@H](CCCNC(=N)N)NC(=O)[C@H](Cc4ccc(O)cc4)NC(=O)[C@H](CCCCN)NC(=O)[C@H](CCSC)NC(=O)[C@H](CO)NC(=O)[C@H](Cc4c[nH]cn4)NC(=O)[C@H](CCCCN)NC3=O)C(=O)N[C@@H](CCCNC(=N)N)C(=O)N[C@@H](CCCCN)C(=O)N[C@@H]([C@@H](C)O)C(=O)N2)NC(=O)[C@H](CCCNC(=N)N)NC(=O)[C@H](CO)NC(=O)[C@H](CCCCN)NC(=O)[C@@H]2CCCN2C(=O)[C@H]([C@@H](C)CC)NC(=O)[C@H]([C@@H](C)O)NC(=O)[C@H](CC(=O)O)NC1=O [ShK, Stichodactyla toxin]	MTX > ShK >> KTX1	ShK > KTX1 >> MTX; also recorded: ShK > KTX1 > MTX
